Assays:
Assay in all cases: cells
Settings in all cases: Homo sapiens
COLO-824 = type: functional, cell-based
Description: SANGER: Inhibition of human COLO-824 cell growth in a cell viability assay.

CP66-MEL = type: functional, cell-based;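 further: growth inhibition of CP66-MEL cells determined in a cell viability assay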
Description: SANGER: Inhibition of human CP66-MEL cell growth in a cell viability assay.

CTV-1 = type: functional, cell-based;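 further: growth inhibition of the cell line, read out with a cell viability assay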
Description: SANGER: Inhibition of human CTV-1 cell growth in a cell viability assay.

CW-2 = type: functional, cell-based;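 further: growth inhibition of CW-2 cells, read out by a cell viability assay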
Description: SANGER: Inhibition of human CW-2 cell growth in a cell viability assay.

D283 Med = type: functional, cell-based
Description: SANGER: Inhibition of human D-283MED cell growth in a cell viability assay.

DB = type: functional, cell-based
Description: SANGER: Inhibition of human DB cell growth in a cell viability assay.

DEL = type: functional, cell-based;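 further: growth inhibition of the human DEL cell line, read out with a cell viability assay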
Description: SANGER: Inhibition of human DEL cell growth in a cell viability assay.

DMS-79 = type: functional, cell-based;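 further: growth inhibition measured with a cell viability assay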
Description: SANGER: Inhibition of human DMS-79 cell growth in a cell viability assay.

GAK = type: functional, cell-based;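 further: cell growth inhibition read out by a cell viability assay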
Description: SANGER: Inhibition of human GAK cell growth in a cell viability assay.

GI-ME-N = type: functional, cell-based;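 further: growth inhibition of human GI-ME-N cells, read out with a cell viability assay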
Description: SANGER: Inhibition of human GI-ME-N cell growth in a cell viability assay.

HEL = type: functional, cell-based;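 further: growth inhibition of HEL cells, read out with a cell viability assay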
Description: SANGER: Inhibition of human HEL cell growth in a cell viability assay.

HH = type: functional, cell-based
Description: SANGER: Inhibition of human HH cell growth in a cell viability assay.

KALS-1 = type: functional, cell-based;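 further: growth inhibition of KALS-1 cells, determined with a cell viability assay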
Description: SANGER: Inhibition of human KALS-1 cell growth in a cell viability assay.

KINGS-1 = type: functional, cell-based;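 further: cell viability assay measuring suppression of KINGS-1 cell growth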
Description: SANGER: Inhibition of human KINGS-1 cell growth in a cell viability assay.

KLE = type: functional, cell-based;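 further: growth inhibition of human KLE cells, read out with a cell viability assay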
Description: SANGER: Inhibition of human KLE cell growth in a cell viability assay.

KNS-42 = type: functional, cell-based;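 further: growth inhibition of KNS-42 cells, read out with a cell viability assay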
Description: SANGER: Inhibition of human KNS-42 cell growth in a cell viability assay.

KP-N-YS = type: functional, cell-based;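 further: cell viability assay measuring inhibition of cell line growth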
Description: SANGER: Inhibition of human KP-N-YS cell growth in a cell viability assay.

KU812 cell line = type: functional, cell-based;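 further: growth inhibition of KU812 cells, read out with a cell viability assay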
Description: SANGER: Inhibition of human KU812 cell growth in a cell viability assay.

KURAMOCHI = type: functional, cell-based;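 further: growth inhibition of KURAMOCHI cells, read out with a cell viability assay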
Description: SANGER: Inhibition of human KURAMOCHI cell growth in a cell viability assay.

LC-2-ad = type: functional, cell-based;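 further: growth inhibition of human LC-2-ad cells, read out with a cell viability assay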
Description: SANGER: Inhibition of human LC-2-ad cell growth in a cell viability assay.

LOX IMVI = type: functional, cell-based
Description: SANGER: Inhibition of human LOXIMVI cell growth in a cell viability assay.

LU-139 = type: functional, cell-based
Description: SANGER: Inhibition of human LU-139 cell growth in a cell viability assay.

Lu-65 = type: functional, cell-based;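 further: growth inhibition of Lu-65 cancer cells, read out by a cell viability assay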
Description: SANGER: Inhibition of human LU-65 cell growth in a cell viability assay.

MEG-01 = type: functional, cell-based;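 further: growth inhibition of MEG-01 cells, read out by a cell viability assay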
Description: SANGER: Inhibition of human MEG-01 cell growth in a cell viability assay.

MFM-223 = type: functional, cell-based
Description: SANGER: Inhibition of human MFM-223 cell growth in a cell viability assay.

MN-60 = type: functional, cell-based;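 further: growth inhibition of the MN-60 cell line, determined with a cell viability assay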
Description: SANGER: Inhibition of human MN-60 cell growth in a cell viability assay.

MPP-89 = type: functional, cell-based;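 further: growth inhibition of human MPP-89 cells, read out with a cell viability assay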
Description: SANGER: Inhibition of human MPP-89 cell growth in a cell viability assay.

MS-1 = type: functional, cell-based;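 further: growth inhibition of MS-1 cells, read out by cell viability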
Description: SANGER: Inhibition of human MS-1 cell growth in a cell viability assay.

MSTO-211H = type: functional, cell-based
Description: SANGER: Inhibition of human MSTO-211H cell growth in a cell viability assay.

MZ1-PC = type: functional, cell-based;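 further: cell viability assay measuring growth inhibition of human MZ1-PC cells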
Description: SANGER: Inhibition of human MZ1-PC cell growth in a cell viability assay.

Mo = type: functional, cell-based
Description: SANGER: Inhibition of human Mo-T cell growth in a cell viability assay.

NB10 = type: functional, cell-based;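 further: growth inhibition of NB10 cells, read out by a cell viability assay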
Description: SANGER: Inhibition of human NB10 cell growth in a cell viability assay.

NB5 = type: functional, cell-based;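 further: growth inhibition of NB5 cells, read out as cell viability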
Description: SANGER: Inhibition of human NB5 cell growth in a cell viability assay.

NCI-H1092 = type: functional, cell-based;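 further: cell growth inhibition measured with a cell viability assay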
Description: SANGER: Inhibition of human NCI-H1092 cell growth in a cell viability assay.

NCI-H1648 = type: functional, cell-based;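 further: cell viability assay measuring inhibition of NCI-H1648 cell growth, from the Sanger screening data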
Description: SANGER: Inhibition of human NCI-H1648 cell growth in a cell viability assay.

NCI-H1770 = type: functional, cell-based;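 further: growth inhibition of NCI-H1770 cells determined with a viability readout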
Description: SANGER: Inhibition of human NCI-H1770 cell growth in a cell viability assay.

NCI-H226 = type: functional, cell-based;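 further: cell viability read-out used to gauge growth inhibition of the cells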
Description: SANGER: Inhibition of human NCI-H226 cell growth in a cell viability assay.

NCI-H23 = type: functional, cell-based;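 further: cell viability assay measuring growth inhibition of NCI-H23 cells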
Description: SANGER: Inhibition of human NCI-H23 cell growth in a cell viability assay.

NCI-H510A = type: functional, cell-based;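 further: growth inhibition of NCI-H510A cells, read out with a cell viability assay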
Description: SANGER: Inhibition of human NCI-H510A cell growth in a cell viability assay.

SNU1 = type: functional, cell-based;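 further: growth inhibition of human NCI-SNU-1 cells, measured with a cell viability assay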
Description: SANGER: Inhibition of human NCI-SNU-1 cell growth in a cell viability assay.

NEC8 = type: functional, cell-based;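 further: growth inhibition of human NEC8 cells, read out by a cell viability assay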
Description: SANGER: Inhibition of human NEC8 cell growth in a cell viability assay.

NH-12 = type: functional, cell-based;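 further: growth inhibition of NH-12 cells, read out with a cell viability assay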
Description: SANGER: Inhibition of human NH-12 cell growth in a cell viability assay.

NOS-1 = type: functional, cell-based;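 further: growth inhibition of the human NOS-1 cell line, read out with a cell viability assay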
Description: SANGER: Inhibition of human NOS-1 cell growth in a cell viability assay.

NTERA-2-cl-D1 = type: functional, cell-based;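 further: inhibition of cell growth, measured with a cell viability assay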
Description: SANGER: Inhibition of human NTERA-S-cl-D1 cell growth in a cell viability assay.

OCUB-M = type: functional, cell-based;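 further: growth inhibition of the cancer cell line, read out through a cell viability assay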
Description: SANGER: Inhibition of human OCUB-M cell growth in a cell viability assay.

RH-1 = type: functional, cell-based;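 further: growth inhibition of human RH-1 cells, read out with a cell viability assay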
Description: SANGER: Inhibition of human RH-1 cell growth in a cell viability assay.

SCC-15 = type: functional, cell-based;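 further: growth inhibition of SCC-15 cells, read out with a cell viability assay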
Description: SANGER: Inhibition of human SCC-15 cell growth in a cell viability assay.

SNB-75 = type: functional, cell-based;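 further: cell viability assay measuring growth inhibition of human SNB-75 cells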
Description: SANGER: Inhibition of human SNB75 cell growth in a cell viability assay.

SW684 = type: functional, cell-based;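 further: growth inhibition of human SW684 cells, measured by a cell viability assay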
Description: SANGER: Inhibition of human SW684 cell growth in a cell viability assay.

SW 954 = type: functional, cell-based;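 further: growth inhibition of SW954 human cancer cells, read out as cell viability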
Description: SANGER: Inhibition of human SW954 cell growth in a cell viability assay.

SW982 = type: functional, cell-based;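 further: growth inhibition of SW982 cells, read out with a cell viability assay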
Description: SANGER: Inhibition of human SW982 cell growth in a cell viability assay.

TE-1 = type: functional, cell-based
Description: SANGER: Inhibition of human TE-1 cell growth in a cell viability assay.

8-MG-BA = type: functional, cell-based;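 further: growth inhibition of 8-MG-BA cells, read out with a cell viability assay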
Description: SANGER: Inhibition of human 8-MG-BA cell growth in a cell viability assay.

ALL-PO = type: functional, cell-based;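 further: growth inhibition of ALL-PO cells, read out by a cell viability assay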
Description: SANGER: Inhibition of human ALL-PO cell growth in a cell viability assay.

AM-38 = type: functional, cell-based;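 further: growth inhibition of AM-38 cells of human origin, read out by a cell viability assay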
Description: SANGER: Inhibition of human AM-38 cell growth in a cell viability assay.

TE-11 = type: functional, cell-based;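 further: growth inhibition of human TE-11 cells, read out by a cell viability assay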
Description: SANGER: Inhibition of human TE-11 cell growth in a cell viability assay.

TE-12 = type: functional, cell-based;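 further: growth inhibition of TE-12 cells, read out by a cell viability assay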
Description: SANGER: Inhibition of human TE-12 cell growth in a cell viability assay.

TE-9 = type: functional, cell-based;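 further: cell growth inhibition, measured with a cell viability readout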
Description: SANGER: Inhibition of human TE-9 cell growth in a cell viability assay.

TK-10 = type: functional, cell-based;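 further: growth inhibition of TK-10 cells, read out in a cell viability assay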
Description: SANGER: Inhibition of human TK10 cell growth in a cell viability assay.

U-266 = type: functional, cell-based
Description: SANGER: Inhibition of human U-266 cell growth in a cell viability assay.

U-87 MG = type: functional, cell-based, U-87MG ATCC
Description: SANGER: Inhibition of human U-87-MG cell growth in a cell viability assay.

UACC-257 = type: functional, cell-based
Description: SANGER: Inhibition of human UACC-257 cell growth in a cell viability assay.

no-11 = type: functional, cell-based
Description: SANGER: Inhibition of human no-11 cell growth in a cell viability assay.

CAS-1 = type: functional, cell-based
Description: SANGER: Inhibition of human CAS-1 cell growth in a cell viability assay.

CGTH-W-1 = type: functional, cell-based
Description: SANGER: Inhibition of human CGTH-W-1 cell growth in a cell viability assay.

COLO-684 = type: functional, cell-based
Description: SANGER: Inhibition of human COLO-684 cell growth in a cell viability assay.

SMILES: C/C=C(/C)C(=O)O[C@H]1C(C)=C2[C@H]([C@@H]1OC(=O)CCCCCCC)[C@@](C)(OC(C)=O)C[C@H](OC(=O)CCC)[C@@]1(O)[C@H]2OC(=O)[C@@]1(C)O [THAPSIGARGIN]
- IC50 (COLO-824): 64.6 nM
- IC50 (CP66-MEL): 3.6 nM
- IC50 (CTV-1): 5.2 nM
- IC50 (CW-2): > 512 nM
- IC50 (D283 Med): < 2 nM
- IC50 (DB): 2.55 nM
- IC50 (DEL): 10.3 nM
- IC50 (DMS-79): > 512 nM
- IC50 (GAK): 199 nM
- IC50 (GI-ME-N): 18.2 nM
- IC50 (HEL): 46.3 nM
- IC50 (HH): 95.9 nM
- IC50 (KALS-1): 0.516 nM
- IC50 (KINGS-1): 7.59 nM
- IC50 (KLE): 70.2 nM
- IC50 (KNS-42): 16.9 nM
- IC50 (KP-N-YS): 8.06 nM
- IC50 (KU812 cell line): 2.12 nM
- IC50 (KURAMOCHI): 5.44 nM
- IC50 (LC-2-ad): 4.64 nM
- IC50 (LOX IMVI): 2.98 nM
- IC50 (LU-139): 33.6 nM
- IC50 (Lu-65): 8.49 nM
- IC50 (MEG-01): 10.8 nM
- IC50 (MFM-223): > 512 nM
- IC50 (MN-60): 69.2 nM
- IC50 (MPP-89): 20 nM
- IC50 (MS-1): 29.5 nM
- IC50 (MSTO-211H): 293 nM
- IC50 (MZ1-PC): < 2 nM
- IC50 (Mo): > 512 nM
- IC50 (NB10): 63.2 nM
- IC50 (NB5): 66.6 nM
- IC50 (NCI-H1092): > 512 nM
- IC50 (NCI-H1648): 1.44 nM
- IC50 (NCI-H1770): 25.7 nM
- IC50 (NCI-H226): 2.41 nM
- IC50 (NCI-H23): > 512 nM
- IC50 (NCI-H510A): 36.1 nM
- IC50 (SNU1): 13.6 nM
- IC50 (NEC8): 11 nM
- IC50 (NH-12): 24 nM
- IC50 (NOS-1): < 2 nM
- IC50 (NTERA-2-cl-D1): < 2 nM
- IC50 (OCUB-M): 0.597 nM
- IC50 (RH-1): 43.4 nM
- IC50 (SCC-15): 1.12 nM
- IC50 (SNB-75): 32.6 nM
- IC50 (SW684): > 512 nM
- IC50 (SW 954): 15.6 nM
- IC50 (SW982): < 2 nM
- IC50 (TE-1): 22 nM
- IC50 (8-MG-BA): 1.99 nM
- IC50 (ALL-PO): 16.3 nM
- IC50 (AM-38): 14.8 nM
- IC50 (TE-11): 9.14 nM
- IC50 (TE-12): 10.6 nM
- IC50 (TE-9): 13.3 nM
- IC50 (TK-10): 22.7 nM
- IC50 (U-266): 2.91 nM
- IC50 (U-87 MG): 132 nM
- IC50 (UACC-257): 115 nM
- IC50 (no-11): 58.9 nM
- IC50 (CAS-1): 118 nM
- IC50 (CGTH-W-1): < 2 nM
- IC50 (COLO-684): 345 nM

SMILES: C[C@]1(c2nc3c(C(N)=O)cccc3[nH]2)CCCN1 [VELIPARIB]
- IC50 (COLO-824): > 5000 nM
- IC50 (CP66-MEL): > 5000 nM
- IC50 (CTV-1): > 5000 nM
- IC50 (CW-2): > 5000 nM
- IC50 (D283 Med): > 5000 nM
- IC50 (DB): > 5000 nM
- IC50 (DEL): > 5000 nM
- IC50 (DMS-79): > 5000 nM
- IC50 (GAK): > 5000 nM
- IC50 (GI-ME-N): > 5000 nM
- IC50 (HEL): > 5000 nM
- IC50 (HH): > 5000 nM
- IC50 (KALS-1): > 5000 nM
- IC50 (KINGS-1): > 5000 nM
- IC50 (KLE): > 5000 nM
- IC50 (KNS-42): > 5000 nM
- IC50 (KP-N-YS): > 5000 nM
- IC50 (KU812 cell line): > 5000 nM
- IC50 (KURAMOCHI): > 5000 nM
- IC50 (LC-2-ad): > 5000 nM
- IC50 (LOX IMVI): > 5000 nM
- IC50 (LU-139): > 5000 nM
- IC50 (Lu-65): > 5000 nM
- IC50 (MEG-01): > 5000 nM
- IC50 (MFM-223): > 5000 nM
- IC50 (MN-60): > 5000 nM
- IC50 (MPP-89): > 5000 nM
- IC50 (MS-1): > 5000 nM
- IC50 (MSTO-211H): > 5000 nM
- IC50 (MZ1-PC): > 5000 nM
- IC50 (Mo): > 5000 nM
- IC50 (NB10): > 5000 nM
- IC50 (NB5): > 5000 nM
- IC50 (NCI-H1092): > 5000 nM
- IC50 (NCI-H1648): > 5000 nM
- IC50 (NCI-H1770): > 5000 nM
- IC50 (NCI-H226): > 5000 nM
- IC50 (NCI-H23): > 5000 nM
- IC50 (NCI-H510A): > 5000 nM
- IC50 (SNU1): > 5000 nM
- IC50 (NEC8): > 5000 nM
- IC50 (NH-12): > 5000 nM
- IC50 (NOS-1): > 5000 nM
- IC50 (NTERA-2-cl-D1): > 5000 nM
- IC50 (OCUB-M): > 5000 nM
- IC50 (RH-1): > 5000 nM
- IC50 (SCC-15): > 5000 nM
- IC50 (SNB-75): > 5000 nM
- IC50 (SW684): > 5000 nM
- IC50 (SW 954): > 5000 nM
- IC50 (SW982): > 5000 nM
- IC50 (TE-1): > 5000 nM
- IC50 (8-MG-BA): > 5000 nM
- IC50 (ALL-PO): > 5000 nM
- IC50 (AM-38): > 5000 nM
- IC50 (TE-11): > 5000 nM
- IC50 (TE-12): > 5000 nM
- IC50 (TE-9): > 5000 nM
- IC50 (TK-10): > 5000 nM
- IC50 (U-266): > 5000 nM
- IC50 (U-87 MG): > 5000 nM
- IC50 (UACC-257): > 5000 nM
- IC50 (no-11): > 5000 nM
- IC50 (CAS-1): > 5000 nM
- IC50 (CGTH-W-1): > 5000 nM
- IC50 (COLO-684): > 5000 nM

— ChEMBL document CHEMBL1201861, “Genomics of Drug Sensitity in Cancer screening data, Wellcome Trust Sanger Institute”
